From patent US4294833A, “Substituted 4-hydroxy-isophthalic acid picolylamides having a pharmaceutical activity in thromboembolic disorders” (Societa Italo-Britannica, priority 1977, dated 1981)

Columns and labels:
[1] = Acute toxicity, intraperitoneal; set-up: acute toxicity (LD50 / DL50): unit: mg/kg; conditions: mouse, in vivo, ip, male Swiss mice, intraperitoneal, 7 days observation; preliminary, by graphic interpolation; read-out: acute toxicity (LD50 / DL50)
How it was run: (§1)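 Male Swiss mice (20±2 g), fasted 18 h with water ad libitum, were dosed intraperitoneally and observed for 7 days for symptoms and deaths. Preliminary LD50 (mg/kg) was obtained by graphic interpolation.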

male Swiss mice = assay: Acute toxicity, intraperitoneal; set-up: acute toxicity (LD50 / DL50): unit: mg/kg; conditions: mouse, in vivo
How it was run: as §1

[2] = test system: CaCl2-induced plasma coagulation; assay: Anticoagulant activity on PRP, Hartert's thromboelastograph; format: in vivo, New Zealand rabbits; conditions: percent increase of total time for coagulum formation (r+k) vs before treatment, 25 mg/kg intraperitoneal, rabbits; for change in vivo at 25 mg/kg: Oryctolagus cuniculus, ip, read-out: anticoagulant activity (AC)
How it was run: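 Thromboelastographic r+k index of PRP, clotted by adding 1.29% CaCl2, compared before and after treatment and expressed as percent increase. Each compound given intraperitoneally at 25 mg/kg.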

[3] = test system: thrombin-induced coagulation of platelet rich plasma; assay: Antithrombin activity on PRP, Hartert's thromboelastograph; format: in vivo, New Zealand rabbits; conditions: percent decrease of index ma/[r+k] vs before treatment, 20 mg/kg intraperitoneal, rabbits; for inhibition in vivo at 20 mg/kg: Oryctolagus cuniculus, Platelet, ip
How it was run: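 Result is expressed as the percent reduction of the thromboelastographic index ma/(r+k) compared with the same index measured before treatment. Treatment was 20 mg/kg of compound i.p., followed by addition of thrombin (60 units, pH 7.4) to the platelet rich plasma.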

[4] = test system: platelet aggregation induced by ADP; assay: Platelet aggregation inhibitory activity in vivo (Born aggregometer), ADP-induced; set-up: species or system New Zealand rabbits; conditions: dose for 50% inhibition of ADP-induced aggregation curve, rabbits, intraperitoneal, blood 2, 4 and 6 hours after injection; for ED50: Oryctolagus cuniculus, Platelet, ip, read-out: platelet antiaggregant activity (AAP), DI50, ADP
How it was run: (§2)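 Born aggregometry with ADP or thrombin as inducer used citrated PRP, with PPP as blank, from anaesthetized rabbits dosed i.p. Sampling was pre-dose and at 2, 4 and 6 h. The value is the mg/kg dose giving 50% inhibition of the aggregation curve versus each rabbit's own pre-treatment control.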

[5] = test system: platelet aggregation induced by thrombin; assay: Platelet aggregation inhibitory activity in vivo (Born aggregometer), thrombin-induced; set-up: species or system New Zealand rabbits; conditions: dose for 50% inhibition of thrombin-induced aggregation curve, rabbits, intraperitoneal, blood 2, 4 and 6 hours after injection; for ED50: Oryctolagus cuniculus, Platelet, ip, read-out: platelet antiaggregant activity (AAP), DI50, Thrombin
How it was run: as §2

blood coagulum = assay: Fibrinolytic activity, Fearnley method (lysis of blood coagulum in toto); format: in vivo; conditions: percent decrease of coagulum weight after 30 minutes at 37° C., 25 mg/kg intraperitoneal, rabbits; for fibrinolytic activity (percent decrease of coagulum weight) at 25 mg/kg: Oryctolagus cuniculus, ip, 0.5 h, read-out: fibrinolytic activity (FL)
How it was run: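 Fibrinolysis is expressed as percent loss of clot weight after 30 min at 37 °C, following 30 min on ice. The clots formed from 0.2 ml rabbit ear-vein blood in pH 7.4 phosphate buffer with thrombin (50 NIH units/ml solution). Samples were taken before and after an intraperitoneal dose of 25 mg/kg.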

Row | SMILES | LD50 at 168 h [1] [mg/kg] | acute toxicity (in words) (male Swiss mice) | change in vivo at 25 mg/kg [2] [%] | inhibition in vivo at 20 mg/kg [3] [%] | ED50 [4] [mg/kg] | ED50 [5] [mg/kg] | fibrinolytic activity (percent decrease of coagulum weight) at 25 mg/kg (blood coagulum) [%] | acute toxicity (LD50 / DL50) (male Swiss mice; ip, 10080 min) | anticoagulant activity (AC) ([2]; 25 mg/kg) | antithrombin activity (AT) ([3]; 20 mg/kg) | platelet antiaggregant activity (AAP), DI50, ADP [4] | platelet antiaggregant activity (AAP), DI50, Thrombin [5] | fibrinolytic activity (FL) (blood coagulum; 25 mg/kg)
1 | CCCCCCCOc1ccc(C(=O)NCc2cccnc2)cc1C(=O)NCc1cccnc1 [Example 5] | 181 | the acute toxicity increases with an increasing number of carbon atoms in the substituent R" | 18 | 46.5 | 24.6 | 18.1 | 38.8 | – | – | – | – | – | –
2 | CCC(C)(C)Oc1c(Cl)cc(C(=O)NCc2cccnc2)cc1C(=O)NCc1cccnc1 [Example 38] | – | – | – | – | – | – | – | 322 | 12,9% | 22,0% | 54,3 mg/kg | 34,6 mg/kg | 19,3%
3 | CCCCCCCCOc1ccc(C(=O)NCc2cccnc2)cc1C(=O)NCc1cccnc1 [Example 6] | 187 | the acute toxicity increases with an increasing number of carbon atoms in the substituent R" | 16.9 | 45.4 | 25.9 | 19.4 | 36.4 | – | – | – | – | – | –
4 | CCCOc1ccc(C(=O)NCc2cccnc2)cc1C(=O)NCc1cccnc1 [Example 1] | 600 | the acute toxicity increases with an increasing number of carbon atoms in the substituent R" | 21.5 | 38.6 | 27.5 | 19.3 | 32.4 | – | – | – | – | – | –
5 | CCCCOc1ccc(C(=O)NCc2cccnc2)cc1C(=O)NCc1cccnc1 [Example 2] | 573 | the acute toxicity increases with an increasing number of carbon atoms in the substituent R" | 23.2 | 40.1 | 26.7 | 18.2 | 35.7 | – | – | – | – | – | –
6 | CCCCCCOc1ccc(C(=O)NCc2cccnc2)cc1C(=O)NCc1cccnc1 [Example 4] | 175 | the acute toxicity increases with an increasing number of carbon atoms in the substituent R" | 19.5 | 47.6 | 22.9 | 17.3 | 41.3 | – | – | – | – | – | –
7 | CCCCCOc1ccc(C(=O)NCc2cccnc2)cc1C(=O)NCc1cccnc1 [Example 3] | 380 | the acute toxicity increases with an increasing number of carbon atoms in the substituent R" | 27.4 | 43 | 25.3 | 17.5 | 36.2 | – | – | – | – | – | –
8 | COc1cc(C(=O)NCc2cccnc2)cc(C(=O)NCc2cccnc2)c1OCC(C)(C)C [Example 37] | 378 | – | 14.2 | 25.5 | 44.6 | 32 | 21.9 | – | – | – | – | – | –
9 | C=C(C)Oc1c(Cl)cc(C(=O)N(C)Cc2cccnc2)cc1C(=O)N(C)Cc1cccnc1 [Example 52] | 194 | – | 14.2 | 29.1 | 49.2 | 32.1 | 26.7 | – | – | – | – | – | –
10 | CC=CCOc1ccc(C(=O)N(C)Cc2cccnc2)cc1C(=O)N(C)Cc1cccnc1 [Example 53] | 215 | – | 15.1 | 47.9 | 27.5 | 19.6 | 40.5 | – | – | – | – | – | –
11 | CC(C)(C)COc1ccc(C(=O)NCc2cccnc2)cc1C(=O)NCc1cccnc1 [Example 34] | 351 | – | 13.6 | 29.7 | 35.6 | 27.3 | 22.7 | – | – | – | – | – | –
12 | CC(C)(C)COc1c(C(=O)NCc2cccnc2)cc(C(=O)NCc2cccnc2)cc1[N+](=O)[O-] [Example 35] | 194 | – | 12.6 | 25.4 | 37.1 | 29.7 | 20.2 | – | – | – | – | – | –
13 | CC(C)COc1ccc(C(=O)NCc2cccnc2)cc1C(=O)NCc1cccnc1 [Example 15] | 471 | – | 17.6 | 25.5 | 52.6 | 33 | 19.8 | – | – | – | – | – | –
14 | CCOc1ccc(C(=O)N(Cc2cccnc2)CC(C)C)cc1C(=O)N(Cc1cccnc1)CC(C)C [Example 44] | 465 | – | 19.3 | 38.6 | 28.7 | 20.9 | 32.5 | – | – | – | – | – | –
15 | CCN(Cc1cccnc1)C(=O)c1ccc(OC)c(C(=O)N(CC)Cc2cccnc2)c1 [Example 40] | 605 | – | 13.4 | 28.9 | 60.2 | 42.3 | 20.6 | – | – | – | – | – | –
